Test results as given in US9981940B2, “Aryl sulfide derivatives and aryl sulfoxide derivatives as acaricides and insecticides” (BAYER CROPSCIENCE AKTIENGESELLSCHAFT, priority 2013, dated 2018).

Columns and labels:
Tetranychus urticae = Tetranychus urticae spray test, OP-resistant (TETRUR); format: in vivo; conditions: after 6 days; for pest or weed control at 500 g/ha: Tetranychus urticae, 144 h, read-out: efficacy
Method: Tetranychus urticae—Spray Test, OP-Resistant (TETRUR)
• Solvent: 78.0 parts by weight of acetone • 1.5 parts by weight of dimethylformamide • Emulsifier: 0.5 part by weight of alkylaryl polyglycol ether
To produce an appropriate active ingredient formulation, 1 part by weight of active ingredient is mixed with the specified amounts of solvent and emulsifier, and the concentrate is diluted to the desired concentration with emulsifier-containing water.
Discs of bean leaves (Phaseolus vulgaris) infested by all stages of the greenhouse red spider mite (Tetranychus urticae) are sprayed with an active ingredient formulation of the desired concentration.
After 6 days, the efficacy in % is determined 100% means that all the spider mites have been killed; 0% means that none of the spider mites have been killed.

[1] = log P by HPLC (OECD Guideline 117), method [a] acidic range; format: physicochemical; conditions: for chromatographic logP: reversed-phase C18 HPLC column, acidic range; for logP[a]: HPLC, method [a] acidic range
Method: (§1) The log P values were determined analogously to OECD Guideline 117 (EC Directive 92/69/EEC) by HPLC (high-performance liquid chromatography) using reversed-phase columns (C 18), by the following methods:
[a] The LC-MS determination in the acidic range is effected at pH 2.7 with 0.1% aqueous formic acid and acetonitrile (contains 0.1% formic acid) as eluents; linear gradient from 10% acetonitrile to 95% acetonitrile.

[2] = log P by HPLC (OECD Guideline 117), method [b] neutral range; format: physicochemical; conditions: HPLC; for chromatographic logP: reversed-phase C18 HPLC column, neutral range, pH 7.8; for logP[b]: method [b] neutral range
Method: as §1
[b] The LC-MS determination in the neutral range is effected at pH 7.8 with 0.001 molar aqueous ammonium hydrogencarbonate solution and acetonitrile as eluents; linear gradient from 10% acetonitrile to 95% acetonitrile.

[3] = pH 2.7, HPLC method [a], read-out: logP[a]
[4] = pH 2.7, HPLC, pH 2.7, read-out: log P[a]

Cc1cc(F)c(-n2nc(C3CCCC3)n(C3CC3)c2=S)cc1SCC(F)(F)F [Example 497, 5-Cyclopentyl-4-cyclopropyl-2-{2-fluoro-4-methyl-5-[(2,2,2-trifluoroethyl)sulphanyl]-phenyl}-2,4-dihydro-3H-1,2,4-triazole-3-thione]
pest or weed control at 500 g/ha (Tetranychus urticae; application rate of 500 g/ha): 90% | chromatographic logP [1, 3]: 4.68 | chromatographic logP [1, 4]: 4.68 | chromatographic logP [2]: 4.57

Cc1cc(F)c(-n2nc([S+](C)[O-])n(C)c2=O)cc1SCC(F)(F)F (centres unmarked) [Example 232]
efficacy (Tetranychus urticae; application rate of 500 g/ha): 90% | logP[a] [1]: 2.25 | logP[b] [2]: 2.21

CCC(C)Oc1nn(-c2cc([S+]([O-])CC(F)(F)F)c(C)cc2F)c(=O)n1C1CC1 (centres unmarked) [Example 141]
efficacy (Tetranychus urticae; application rate of 500 g/ha): 90% | logP[a] [1]: 3.18 | logP[b] [2]: 3.12

C=CCn1c(SC)nn(-c2cc(SCC(F)(F)F)c(C)cc2F)c1=O [Example 271]
efficacy (Tetranychus urticae; application rate of 500 g/ha): 100% | logP[a] [1]: 3.61 | logP[b] [2]: 3.58

Cc1cc(F)c(-n2nc(SCC(F)(F)F)n(C3CC3)c2=O)cc1SCC(F)(F)F [Example 254]
efficacy (Tetranychus urticae; application rate of 500 g/ha): 90% | logP[a] [1]: 3.89 | logP[b] [2]: 3.84

Cc1cc(F)c(-n2nc([S+]([O-])C(C)C)n(C3CC3)c2=O)cc1SCC(F)(F)F (centres unmarked) [Example 238]
efficacy (Tetranychus urticae; application rate of 500 g/ha): 100% | logP[a] [1]: 2.99 | logP[b] [2]: 2.92

CCn1c(SC)nn(-c2cc(SCC(F)(F)F)c(C)cc2F)c1=O [Example 269]
efficacy (Tetranychus urticae; application rate of 500 g/ha): 100% | logP[a] [1]: 3.53 | logP[b] [2]: 3.44

Cc1cc(F)c(-n2nc(C3CCCC3)n(C3CC3)c2=O)cc1[S+]([O-])CC(F)(F)F (centres unmarked) [Example 360]
efficacy (Tetranychus urticae; application rate of 500 g/ha): 90% | logP[a] [1]: 3.06 | logP[b] [2]: 3.03

Cc1cc(F)c(-n2nc(CC(C)C)n(C3CC3)c2=O)cc1SCC(F)(F)F [Example 83]
efficacy (Tetranychus urticae; application rate of 500 g/ha): 100% | logP[a] [1]: 3.99 | logP[b] [2]: 3.93

Cc1ccc(-n2nc(C(F)(F)F)n(N)c2=O)cc1SCC(F)(F)F [Example 212]
efficacy (Tetranychus urticae; application rate of 500 g/ha): 90% | logP[a] [1]: 3.38 | logP[b] [2]: 3.37

Cc1cc(F)c(-n2ccn(C(C)(C)C)c2=O)cc1SCC(F)(F)F [Example 488]
efficacy (Tetranychus urticae; application rate of 500 g/ha): 100% | logP[a] [1]: 3.69 | logP[b] [2]: 3.63

COc1nn(-c2cc(SCC(F)(F)F)c(F)cc2F)c(=O)n1C1CC1 [Example 171]
efficacy (Tetranychus urticae; application rate of 500 g/ha): 100% | logP[a] [1]: 2.97 | logP[b] [2]: 2.92

Cc1cc(F)c(-n2nc(C)n(N)c2=O)cc1SCC(F)(F)F [Example 200]
efficacy (Tetranychus urticae; application rate of 500 g/ha): 100% | logP[a] [1]: 2.18 | logP[b] [2]: 2.13

CCOc1nn(-c2cc(SCC(F)(F)F)c(C)cc2F)c(=O)n1CC [Example 401]
efficacy (Tetranychus urticae; application rate of 500 g/ha): 100% | logP[a] [1]: 3.62 | logP[b] [2]: 3.53

Cc1cc(F)c(-n2ncn(Cc3ccccc3)c2=O)cc1[S+]([O-])CC(F)(F)F (centres unmarked) [Example 370]
efficacy (Tetranychus urticae; application rate of 500 g/ha): 100% | logP[a] [1]: 2.35 | logP[b] [2]: 2.36

Cc1cc(C)c([S+]([O-])CC(F)(F)F)cc1-n1ncn(C(C)(C)C)c1=O (centres unmarked) [Example 372]
efficacy (Tetranychus urticae; application rate of 500 g/ha): 100% | logP[a] [1]: 2.34 | logP[b] [2]: 2.28

COC1=CC(=O)N(c2ccc(C)c(SCC(F)(F)F)c2)C1 [Example 316]
efficacy (Tetranychus urticae; application rate of 500 g/ha): 90% | logP[a] [1]: 2.98 | logP[b] [2]: 2.95

Cc1cc(F)c(-n2nc(SC(C)C)n(C3CC3)c2=O)cc1[S+]([O-])CC(F)(F)F (centres unmarked) [Example 267]
efficacy (Tetranychus urticae; application rate of 500 g/ha): 100% | logP[a] [1]: 3.19 | logP[b] [2]: 3.12

Cc1cc(F)c(-n2nc(Br)n(C(C)(C)C)c2=O)cc1SCC(F)(F)F [Example 438]
efficacy (Tetranychus urticae; application rate of 500 g/ha): 100% | logP[a] [1]: 4.24 | logP[b] [2]: 4.17

CCc1nn(-c2cc(SCC(F)(F)F)c(C)cc2F)c(=O)o1 [Example 455]
efficacy (Tetranychus urticae; application rate of 500 g/ha): 100% | logP[a] [1]: 3.53 | logP[b] [2]: 3.46

COc1nn(-c2cc(SCC(F)(F)F)c(Br)cc2F)c(=O)n1C [Example 175]
efficacy (Tetranychus urticae; application rate of 100 g/ha): 100% | logP[a] [1]: 3.04 | logP[b] [2]: 2.98

Cc1cc(F)c(-n2nc(N(C)C)n(C3CC3)c2=O)cc1SCC(F)(F)F [Example 193]
efficacy (Tetranychus urticae; application rate of 500 g/ha): 100% | logP[a] [1]: 3.20 | logP[b] [2]: 3.15

C=CCn1c(SCC)nn(-c2cc(SCC(F)(F)F)c(C)cc2F)c1=O [Example 428]
efficacy (Tetranychus urticae; application rate of 500 g/ha): 100% | logP[a] [1]: 4.03 | logP[b] [2]: 3.96

Cc1cc(F)c(-n2nc(-c3cccc(F)c3)n(C3CC3)c2=O)cc1SCC(F)(F)F [Example 69]
efficacy (Tetranychus urticae; application rate of 100 g/ha): 100% | logP[a] [1]: 3.98 | logP[b] [2]: 3.89

CCn1c(C(F)(F)F)nn(-c2cc(SCC(F)(F)F)c(C)cc2F)c1=O [Example 57]
efficacy (Tetranychus urticae; application rate of 500 g/ha): 90% | logP[a] [1]: 3.96 | logP[b] [2]: 3.88

Cc1cc(F)c(-n2nc(C(F)(F)F)n(CC(F)(F)F)c2=O)cc1[S+]([O-])CC(F)(F)F (centres unmarked) [Example 56]
efficacy (Tetranychus urticae; application rate of 100 g/ha): 90% | logP[a] [1]: 3.20 | logP[b] [2]: 3.09

Cc1cc(F)c(-n2nc([S+]([O-])Cc3ccccc3)n(C)c2=O)cc1[S+]([O-])CC(F)(F)F (centres unmarked) [Example 250]
efficacy (Tetranychus urticae; application rate of 500 g/ha): 100% | logP[a] [1]: 2.34 | logP[b] [2]: 2.29

Cc1cc(F)c(-n2nc(C(C)C)n(C3CC3)c2=O)cc1[S+]([O-])CC(F)(F)F (centres unmarked) [Example 43]
efficacy (Tetranychus urticae; application rate of 500 g/ha): 100% | logP[a] [1]: 2.52 | logP[b] [2]: 2.47

CC[S+]([O-])c1nn(-c2cc([S+]([O-])CC(F)(F)F)c(C)cc2F)c(=O)n1C (centres unmarked) [Example 244, 5-(Ethylsulphinyl)-2-{2-fluoro-4-methyl-5-[(2,2,2-trifluoroethyl)sulphinyl]phenyl}-4-methyl-2,4-dihydro-3H-1,2,4-triazol-3-one]
pest or weed control at 500 g/ha (Tetranychus urticae; application rate of 500 g/ha): 100% | chromatographic logP [1, 3]: 1.69 | chromatographic logP [1, 4]: 1.69 | chromatographic logP [2]: 1.65

C=CCn1c(C(F)(F)F)nn(-c2cc([S+]([O-])CC(F)(F)F)c(C)cc2F)c1=O (centres unmarked) [Example 364]
efficacy (Tetranychus urticae; application rate of 500 g/ha): 90% | logP[a] [1]: 3.00 | logP[b] [2]: 2.96

Cc1cc(F)c(-n2nc(SCC(F)(F)F)n(C)c2=O)cc1[S+]([O-])CC(F)(F)F (racemic) [Example 282]
efficacy (Tetranychus urticae; application rate of 500 g/ha): 100% | logP[a] [1]: 2.57 | logP[b] [2]: 2.52

Cc1cc(C)c([S+]([O-])CC(F)(F)F)cc1-n1nnn(C(C)C)c1=O (racemic) [Example 300]
efficacy (Tetranychus urticae; application rate of 500 g/ha): 100% | logP[a] [1]: 2.63 | logP[b] [2]: 2.61

Cc1cc(F)c(-n2nc(SCc3ccccc3)n(C)c2=O)cc1[S+]([O-])CC(F)(F)F (racemic) [Example 287]
efficacy (Tetranychus urticae; application rate of 500 g/ha): 100% | logP[a] [1]: 3.08 | logP[b] [2]: 3.02

CCCOc1nn(-c2cc([S+]([O-])CC(F)(F)F)c(C)cc2F)c(=O)n1CC (centres unmarked) [Example 408]
efficacy (Tetranychus urticae; application rate of 500 g/ha): 100% | logP[a] [1]: 2.86 | logP[b] [2]: 2.81

CCn1c(C(F)(F)F)nn(-c2cc(SCC(F)(F)F)c(C)cc2Cl)c1=O [Example 50]
efficacy (Tetranychus urticae; application rate of 500 g/ha): 100% | logP[a] [1]: 4.14 | logP[b] [2]: 4.07

CCc1nn(-c2cc(SCC(F)(F)F)c(C)cc2F)c(=O)n1C1CC1 [Example 77]
efficacy (Tetranychus urticae; application rate of 500 g/ha): 100% | logP[a] [1]: 3.24 | logP[b] [2]: 3.18

CC1=CC(=O)N(c2cc(SCC(F)(F)F)c(C)cc2F)C1=O [Example 340]
efficacy (Tetranychus urticae; application rate of 500 g/ha): 90% | logP[a] [1]: 3.37 | logP[b] [2]: 3.39

Cc1cc(F)c(-n2nc(-c3cccc(F)c3)n(C3CC3)c2=O)cc1[S+]([O-])CC(F)(F)F (racemic) [Example 70]
efficacy (Tetranychus urticae; application rate of 500 g/ha): 90% | logP[a] [1]: 2.94 | logP[b] [2]: 2.87

Cc1cc(F)c(-n2nc(SCc3ccccc3)n(C)c2=O)cc1SCC(F)(F)F [Example 286]
efficacy (Tetranychus urticae; application rate of 500 g/ha): 100% | logP[a] [1]: 4.12 | logP[b] [2]: 4.03

Cc1ccc(-n2nc(OC3CCCCC3)n(C)c2=O)cc1SCC(F)(F)F [Example 155]
efficacy (Tetranychus urticae; application rate of 500 g/ha): 100% | logP[a] [1]: 5.22 | logP[b] [2]: 5.17

CCOc1nn(-c2ccc(C)c(SCC(F)(F)F)c2)c(=O)n1C1CC1 [Example 122]
efficacy (Tetranychus urticae; application rate of 500 g/ha): 100% | logP[a] [1]: 4.19 | logP[b] [2]: 4.04

Cc1cc(F)c(-n2nc(N(C)C)n(N)c2=O)cc1[S+]([O-])CC(F)(F)F (centres unmarked) [Example 221]
efficacy (Tetranychus urticae; application rate of 500 g/ha): 100% | logP[a] [1]: 1.63 | logP[b] [2]: 1.60

COCCCn1c(OC)nn(-c2cc(SCC(F)(F)F)c(C)cc2F)c1=O [Example 388]
efficacy (Tetranychus urticae; application rate of 500 g/ha): 90% | logP[a] [1]: 3.16 | logP[b] [2]: 3.15

COc1nn(-c2cc([S+]([O-])CC(F)(F)F)c(C)cc2F)c(=O)n1C1CC1 (single isomer, unassigned) [Example 379]
efficacy (Tetranychus urticae; application rate of 500 g/ha): 90% | logP[a] [1]: 2.14 | logP[b] [2]: 2.09
